# Reference: US12208130B2, “Treatment of women affected with polycystic ovary syndrome” (INSTITUT NATIONAL DE LA SANTE ET DE LA RECHERCHE MEDICALE …, priority 2017, dated 2025)
# Where a SMILES comes first, the peptide text is derived from it. [ ]: non-standard residue; d: D form. dPhe(4-Cl) = N[C@H](Cc1ccc(Cl)cc1)C(=O)O; d2Nal = N[C@H](Cc1ccc2ccccc2c1)C(=O)O; dCit = NC(=O)NCCC[C@@H](N)C(=O)O; d3Pal = N[C@H](Cc1cccnc1)C(=O)O
# Tested on: placenta
# Assay: Quantitative RT-PCR of E19.5 placental tissue
# Assay type: in vivo, mouse
# Conditions: dams i.p. AMH + GnRH antag E16.5-E18.5; placenta E19.5
# Procedure: PAMH+GnRH antag. (FIG. 3D) Schematic representation of tail-tip blood sampling in adult diestrus female mice (3-4 months old). (FIG. 3E) Tail blood was collected every 10 min for 2 h and LH measured from 10 a.m-12 p.m in adult (P60) diestrus females (Control, n=8; PAMH, n=10; PAMH+GnRH antag, n=9; One-way ANOVA and Tukey's multiple comparison post hoc test, F(2,24)=57.06, *P<0.05, ***P<0.0001). Bars from left to right: Control, PAMH, PAMH+GnRH antag. (FIGS. 2F-1, 2F-2, 2F-3) Representative graphs for LH pulsatility over 2-hr in one female adult (P60) mouse of each treatment. Asterisks in (FIG. 3F) indicate the number of LH pulses/2-hr. (FIG. 3G) Mean circulating testosterone and LH levels were analyzed in pregnant PBS-treated (n=4) and AMH-treated (n=4) dams at embryonic day (E) 19.5 of gestation. […] (FIG. 3H) Relative mRNA expression of placental Cyp191a (aromatase) in control (n=4) and AMH (n=4)-treated pregnant animals at E19.5. Cyp191a expression in the placenta is […] in AMH-treated pregnant dams as compared to control-treated pregnant dams (Unpaired Student's t-test, t(6)=5.414, **P<0.005). Values are expressed as relative to the mean of each treatment. All values are expressed as mean±s.e.m. (FIGS. 3I-1, 3I-2, 3I-3, 3I-4) Dams were injected from E16.5 to E18.5 with either PBS (vehicle, n=9-11), AMH (n=8-10), AMH+GnRH antag (n=5) and trunk blood was collected at E19.5 for hormonal measurements by ELISA. Data were combined from at least two independent experiments. In FIGS. 3I-1, 3I-2, 3I-3, 3I-4: left bar: vehicle; middle bar: AMH; right bar: AMH+GnRH antagonist. (FIGS. 3J-1, 3J-2, 3J-3, 3J-4)) Real-time PCR analysis of expression levels of AMHR2, CYP191A (cytochrome P450 family 19A1, aromatase), CYP11A1 (cytochrome P450 family 11A1), HSD3B1 (3beta-hydroxysteroid dehydrogenase/delta(5)-delta(4)isomerase type I or hydroxy-delta-5-steroid dehydrogenase) mRNA in the placenta of E19.5 dams. Dams were injected i.p. from E16.5 to E18.5 with either PBS (vehicle, n=8-17), AMH (n=7-11), or AMH+GnRH antag (n=8-13). Data were combined from three independent experiments. […] In FIGS. 3J-1, 3J-2, 3J-3, 3J-4: left bar: vehicle; middle bar: AMH; right bar: AMH+GnRH antagonist.
# E19.5 placental tissue from female control and PAMH embryos was isolated for total RNA was using Trizol (ThermoFisher Scientific, Cat #15596026) and the RNeasy Lipid Tissue Mini Kit (Qiagen; Cat #74804) using the manufacturer's instructions. For gene expression analyses, mRNAs […] from E19.5 placental tissue were reverse transcribed using SuperScript® IV Reverse Transcriptase (Life Technologies). Real-time PCR was carried out on Applied Biosystems 7900HT Fast Real-Time PCR system using exon-boundary-specific TaqMan® Gene Expression Assays (Applied Biosystems): Amhr2 (AMHR2-Mm00513847_m1); Cyp19a1 (Cyp19a1-Mm00484049_m1); Cyp11a1 (Cyp11a1-Mm00490735_m1); HSD3b1 (Hsd3b1-Mm01261921_mH); GnRH (Gnrh-Mm01315604_m1); GnRH-R (Gnrhr-Mm00439143_m1); LH-R (Lhcgr-Mm00442931_m1). Control housekeeping genes: ActB (ActB-Mm00607939_s1); GAPDH (GAPDH-Mm99999915_g1).
# Quantitative RT-PCR was performed using TaqMan® Low-Density Arrays (Applied Biosystems) on an Applied Biosystems thermocycler using the manufacturer's recommended cycling conditions. Gene expression data were analyzed using SDS 2.4.1 and Data Assist 3.01 software (Applied Biosystems), with ActB and GAPDH as control house-keeping mRNA following a standardized procedure. […]
compound,measurement,value
"CC(=O)N[C@H](Cc1ccc2ccccc2c1)C(=O)N[C@H](Cc1ccc(Cl)cc1)C(=O)N[C@H](Cc1cccnc1)C(=O)N[C@@H](CO)C(=O)N[C@@H](Cc1ccc(O)cc1)C(=O)N[C@H](CCCNC(N)=O)C(=O)N[C@@H](CC(C)C)C(=O)N[C@@H](CCCNC(=N)N)C(=O)N1CCC[C@H]1C(=O)N[C@H](C)C(N)=O [Cetrorelix acetate, Ac-D-2Nal-D-Phe(4-Cl)-D-3Pal-Ser-Tyr-D-Cit-Leu-Arg-Pro-D-Ala-NH2] (Ac-[d2Nal][dPhe(4-Cl)][d3Pal]SY[dCit]LRP[dA]-NH2)",AMH-driven downregulation of placental HSD3B1 gene expression,prevented the downregulation
same,AMH-driven inhibition of placental CYP19A1 mRNA,prevented
same,placental CYP11A1 expression,did not find any difference
same,placental LHR expression,normalized
same,placental expression of GnRH and GnRHR,unchanged
